Measured values as given in patent US6440446B1, “Agent for anti-osteoporosis” (Kabushiki Kaisha Hayashibara Seibutsu Kagaku Kenkyujo, priority 1998, dated 2002).
Read-outs that look alike come from different tables or passages of the source.

Experiments:
[1] = system: ovary-extracted mice (oophorectomized osteoporosis); experiment: Animal experiment: intravenous injection to ovary-extracted mice on low-calcium feed, dry weight of femurs and tibia microscopy; type: in vivo, female ddY mice; conditions: for Bone content compared with the control groups (ovaries extracted, PBS): administered in place of trehalose, data not shown; for Dry weight of extracted tibia / Dry weight of extracted tibia / Body weight: tail vein, 5 ml/kg body weight/shot, once daily, five times a week
Description: An injection containing 10 w/w % trehalose, obtained by the later described Example 7, was diluted with a phosphate buffered saline, which had been filtered with a membrane filter having a pore size of 0.22 μm (hereinafter abbreviated as “PBS”) into a 0.1 w/w % or 1 w/w % trehalose solution. These solutions and the above injection were used for test samples. According to what is done conventionally, female ddY mice, 4-week-old, which had been grouped into 34 heads/group based on their body weight, were anesthetized with sodium pentobarbital, and extracted their ovaries. From the next day, the mice were injected from their tail veins with any one of the test samples at a dose of 5 ml/kg body weight/shot, once every day and five times a week. […] The feed used was a low-calcium feed for ease of making the difference of the bone content.
In parallel, the following control groups were provided and treated similarly as the group with trehalose: As control 1, a group in which mice were administered with the same amount of PBS as the test samples in place of them; and as control 2, a group in which mice, that were received with a laparotomy pseudo-operation and were not extracted their ovaries, were administered with the same amount of PBS as the test samples in place of them. Some of the mice administered with trehalose using one w/w t trehalose solution, and the mice in controls 1 and 2 as non-trehalose administration groups were extracted their tibias, followed by observing the tibias microscopically. The specimens for microscopic observation were prepared in the usual manner by immobilizing the extracted tibias with formalin solution, washed with water, delimed, split along with the long axis, and treated with protease K to remove bone marrow cells. The specimens of tibias were observed by a relatively-low vacuum electron-microscope under 24 magnifications, and photographed. The data are respectively in FIGS. 4 to 6. In these figures, white parts are the trabecula of cancellous bone. The osteoporosis occurred in mice extracted their ovaries is called oophorectomized osteoporosis and is an excellent model for postmenopausal osteoporosis as a geriatric osteoporosis.

[2] = system: ovary-extracted mice (oophorectomized osteoporosis); experiment: Animal experiment: oral administration to ovary-extracted mice on low-calcium feed, dry weight of femurs and tibia microscopy; type: in vivo, female ddY mice
Source text: According to what is done conventionally, female ddY mice, 4-week-old, which had been grouped into 34 heads/group based on their body weight, were anesthetized with sodium pentobarbital, and extracted their ovaries. From the next day, the mice were orally administered with “TREHAOSE®”, a crystalline trehalose powder containing at least 98% trehalose, d.s.b., commercialized by Hayashibara Shoji, Inc, Okayama, Japan, which had been dissolved in distilled water, at a dose of 0.01, 0.1 or 1 g/kg body weight per shot once every day, five shots in a week. […] The feed used was a low-calcium feed for ease of making the difference of the bone content.
In parallel, the following control groups were provided and treated similarly as the group with trehalose: As control 1, a group in which mice were administered with the same amount of distilled water as the aqueous trehalose solution in place of the trehalose solution; as control 2, a group in which mice were administered with estradiol, as a therapeutic agent for osteoporosis, dissolved in the same amount of distilled water as the aqueous trehalose solution in place of the trehalose solution, at a dose of one mg/kg body weight/shot, two times a week; and as control 3, a group in which mice, which were received with a laparotomy pseudo-operation and not extracted their ovaries, were administered with the same amount of distilled water as the aqueous trehalose solution in place of the trehalose solution. Some of the mice administered with trehalose at a dose of 0.1 g/kg body weight/shot, and the mice in controls 1 and 3 as groups with no trehalose were extracted their tibias, followed by observing the tibias microscopically. The specimens for microscopic observation were prepared in the usual manner by immobilizing the extracted tibias with formalin solution, washed with water, delimed, split along with the long axis, and treated with protease K to remove bone marrow cells. The specimens of tibias were observed by a relatively-low vacuum electron-microscope under 24 magnifications, and photographed. The data are respectively in FIGS. 1 to 3. In these figures, white parts are the trabecula of cancellous bone. The osteoporosis occurred in the mice extracted their ovaries is called oophorectomized osteoporosis and is an excellent model for postmenopausal osteoporosis as a geriatric osteoporosis.

[3] = system: osteoclasts; experiment: Osteoclast count in cultured bone marrow cells from tibias of orally treated mice (tartaric-acid-resistant acid phosphatase staining); type: cell-based, ddY mice; conditions: bone marrow cells from mice given oral 0.1 g/kg body weight/shot; control 1 at least 3-times
Source text: Similarly as above, the tibias were extracted from some mice, excluding the aforesaid mice which had been extracted their tibias, in the group with trehalose at a dose of 0.1 g/kg body weight/shot, and in the groups 1 and 3. From each tibia, bone marrow cells were collected in the usual manner and suspended in α-MEM medium, supplemented with 10 v/v % fetal calf serum, to give a cell density of 1.5×10^6 cells/ml. The resulting cell suspensions were respectively placed in 24-well plates in a volume of 0.5 ml/well. To each well was added 0.25 ml/well of a cell suspension with a cell density of 4×10^4 cells/ml of osteoblast-like cells suspended in a fresh preparation of the same medium as above. A solution of 4×10^9M 1α, 25-dihydroxy vitamin D3, dissolved in a fresh preparation of the same medium as above, was added to each well in a volume. of 0.25 ml/well. The resulting cell suspension mixtures were incubated in a 5 v/v % CO2 incubator at 37° C. for six days while replacing the media with a fresh preparation of α-MEM medium containing 1×10^9M 1α, 25-dihydroxy vitamin D3 and 10 v/v % fetal calf serum.
After completion of the culture, the supernatants were removed, and the cells in each well were fixed with formalin, and treated in the usual manner with “NAPHTHOL AS-MS PHOSPHATE” and “RED VIOLET LB SALT”, which are commercialized by Sigma Chemical Company, ST. […]

[4] = system: ddY mice; conditions: mouse, in vivo
Description: An adequate amount of “TREHAOSE®”, a crystalline trehalose powder having at least 98% of trehalose, d.s.b., commercialized by Hayashibara Shoji, Inc., Okayama, Japan, was dissolved in physiological saline containing 5 w/w % gum arabic, and the solution was sterilized in the usual manner. The sterilized solution was injected intraperitoneally or orally administered using a gastric tube to ddY mice, 20-25 g weight, in a group of 10 heads, followed by the observation for seven days. As a result, independently of the administration routes, no mouse died even administered with the maximum dose, 15 g/kg body weight.

[5] = system: osteoclasts; experiment: Osteoclast count in cultured bone marrow cells from tibias of intravenously treated mice (tartaric-acid-resistant acid phosphatase staining); type: cell-based, ddY mice; conditions: bone marrow cells from mice given 10% trehalose solution, about 5 ml/kg body weight/shot; control 1 at least 3-times
Description: Similarly as above, the tibias were extracted from some mice, excluding the aforesaid mice which had been extracted their tibias, in the group with 10% trehalose solution at a dose of about 5 ml/kg body weight/shot, and in the groups 1 and 3. From each tibia, bone marrow cells were collected in the usual manner and suspended in α-MEM medium, supplemented with 10 v/v % fetal calf serum, to give a cell density of 1.5×10^6 cells/ml. The resulting cell suspensions were respectively placed in 24-well plates in a volume of 0.5 ml/well. To each well was added 0.25 ml/well of a cell suspension with a cell density of 4×10^4 cells/ml of osteoblast-like cells suspended in a fresh preparation of the same medium as above. A solution of 4×10^9M 1α, 25-dihydroxy vitamin D3, dissolved in a fresh preparation of the same medium as above, was added to each well in a volume of 0.25 ml/well. The resulting cell suspension mixtures were incubated in a 5 v/v % CO2 incubator at 37° C. for six days while replacing the media with a fresh preparation of α-MEM medium containing 1×10^9M 1α, 25-dihydroxy vitamin D3 and 10 v/v % fetal calf serum.
After completion of the culture, the supernatants were removed, and the cells in each well were fixed with formalin, and treated in the usual manner with “NAPHTHOL AS-MS PHOSPHATE” and “RED VIOLET LB”, which are commercialized by Sigma Chemical Company, ST. […]

[6] = one mg/kg body weight/shot, two times a week (control 2), ovary-extracted mice
[7] = oral 0.01 g/kg body weight/shot, once daily, five shots a week, ovary-extracted mice
[8] = oral 0.1 g/kg body weight/shot, once daily, five shots a week, ovary-extracted mice
[9] = oral 1 g/kg body weight/shot, once daily, five shots a week, ovary-extracted mice

OC[C@H]1O[C@H](O[C@H]2[C@H](O)[C@@H](O)C(O)O[C@@H]2CO)[C@H](O)[C@@H](O)[C@@H]1O (mixture of isomers) [maltose, reference compound]
Bone content compared with the control groups (ovaries extracted, PBS) [1]: no significant difference

C[C@]12CC[C@@H]3c4ccc(O)cc4CC[C@H]3[C@@H]1CC[C@@H]2O [Estradiol, estradiol, reference compound]
Dry weight of extracted tibia [2, 6]: 119.9 ± 7.5 mg
Dry weight of extracted tibia / Body weight [2, 6]: 3.520 ± 0.240 mg/g

OC[C@H]1O[C@H](O[C@H]2O[C@H](CO)[C@@H](O)[C@H](O)[C@H]2O)[C@H](O)[C@@H](O)[C@@H]1O [Trehalose, trehalose]
Number of osteoclasts relative to control 2 (times higher) [3]: about 2 times
Death at the maximum dose ([4]; ip): no mouse died
Death at the maximum dose ([4]; po): no mouse died
Number of osteoclasts relative to control 2 (times higher) [5]: about 2 times
Dry weight of extracted tibia [2, 7]: 83.6 ± 7.0 mg
Dry weight of extracted tibia / Body weight [2, 7]: 2.643 ± 0.195 mg/g
Dry weight of extracted tibia [2, 8]: 85.0 ± 5.2 mg
Dry weight of extracted tibia / Body weight [2, 8]: 2.723 ± 0.163 mg/g
Reduction of trabecula in cancellous bone and expansion of the cavity of marrow (tibia, electron microscope x24, FIG. 1) ([2]; oral 0.1 g/kg body weight/shot, ovary-extracted mice): clearly inhibited
Dry weight of extracted tibia [2, 9]: 88.4 ± 6.4 mg
Dry weight of extracted tibia / Body weight [2, 9]: 2.762 ± 0.172 mg/g
Abnormality induced by the administration ([2]; oral, observation throughout the experiment): No abnormality
Dose at which the inhibitory effect on the lowering of the bone content was found ([2]; oral, ovary-extracted mice): about 0.1 g/kg body weight/shot
Dry weight of extracted tibia ([1]; 0.1 w/w % trehalose solution): 84.2 ± 6.9 mg
Dry weight of extracted tibia / Body weight ([1]; 0.1 w/w % trehalose solution): 2.639 ± 0.213 mg/g
Dry weight of extracted tibia ([1]; 1 w/w % trehalose solution): 86.9 ± 6.1 mg
Dry weight of extracted tibia / Body weight ([1]; 1 w/w % trehalose solution): 2.716 ± 0.191 mg/g
Dry weight of extracted tibia ([1]; 10 w/w % trehalose injection): 89.7 ± 5.5 mg
Dry weight of extracted tibia / Body weight ([1]; 10 w/w % trehalose injection): 2.777 ± 0.170 mg/g
Trehalose concentration at which the inhibitory effect on the lowering of bone content was found ([1]; intravenous, about 5 ml/kg body weight/shot): ~1 w/w %
Abnormality induced by the administration ([1]; intravenous, observation throughout the experiment): No abnormality
Reduction of the trabecula in cancellous bone and expansion of the cavity of marrow (tibia, electron microscope x24, FIG. 4) ([1]; one w/w % trehalose solution, intravenous 5 ml/kg body weight/shot): clearly inhibited

OC[C@@H](O)[C@@H](O)[C@H](O)[C@@H](O)CO [sorbitol, reference compound]
Bone content compared with the control groups (ovaries extracted, PBS) [1]: no significant difference

OC[C@H]1O[C@@](CO)(O[C@H]2O[C@H](CO)[C@@H](O)[C@H](O)[C@H]2O)[C@@H](O)[C@@H]1O [sucrose, reference compound]
Bone content compared with the control group (ovaries extracted, distilled water) ([2]; administered in place of trehalose, data not shown): no significant difference

OC[C@@H](O)[C@H](O)[C@@H](O)CO [xylitol, reference compound]
Bone content compared with the control groups (ovaries extracted, PBS) [1]: no significant difference
